# Assay results published in ChEMBL document CHEMBL4507311, “Data for DCP probe A-1155463” (2021).
# What was measured:
# [1] = molecular target: Prostaglandin G/H synthase 2 (Homo sapiens) (UniProt P35354); experiment: COX2(h) Eurofins-Cerep enzyme and uptake assay; settings: Compound concentration 10.0 uM
# [2] = molecular target: Acetylcholinesterase (Homo sapiens) (UniProt P22303); experiment: Acetylcholinesterase (h) Eurofins-Cerep enzyme and uptake assay; settings: Compound concentration 10.0 uM
# [3] = molecular target: Adenosine receptor A3 (Homo sapiens) (UniProt P0DMS8); experiment: A3 (h) Eurofins-Cerep binding assay; parameters: ligand concentration 0.15 nM; settings: filed as agonist, Compound concentration 10.0 uM
# [4] = molecular target: Type-1 angiotensin II receptor (Homo sapiens) (UniProt P30556); experiment: AT1 (h) Eurofins-Cerep binding assay; parameters: ligand concentration 0.05 nM; settings: filed as antagonist, Compound concentration 10.0 uM
# [5] = molecular target: Type-2 angiotensin II receptor (Homo sapiens) (UniProt P50052); experiment: AT2 (h) Eurofins-Cerep binding assay; parameters: ligand concentration 0.01 nM; settings: filed as agonist, Compound concentration 10.0 uM
# [6] = molecular target: GABA-A receptor; anion channel (Rattus norvegicus) (UniProt O09028+P15431+P18506+P18508+P19969+P20236+P23574+P23576+P28471+P28473+P30191+P62813+P63079+P63138+Q91ZM7+Q9ES14); experiment: BZD (central) Eurofins-Cerep binding assay; type: protein-complex assay; parameters: ligand concentration 0.4 nM; settings: filed as agonist, Compound concentration 10.0 uM
# [7] = molecular target: B2 bradykinin receptor (Homo sapiens) (UniProt P30411); experiment: B2 (h) Eurofins-Cerep binding assay; parameters: ligand concentration 0.3 nM; settings: filed as agonist, Compound concentration 10.0 uM
# [8] = molecular target: Calcitonin-gene-related peptide receptor, CALCRL/RAMP1 (Homo sapiens) (UniProt O60894+Q16602); experiment: CGRP (h) Eurofins-Cerep binding assay; type: protein-complex assay; parameters: ligand concentration 0.03 nM; settings: filed as agonist, Compound concentration 10.0 uM
# [9] = molecular target: D(1A) dopamine receptor (Homo sapiens) (UniProt P21728); experiment: D1 (h) Eurofins-Cerep binding assay; parameters: ligand concentration 0.3 nM; settings: filed as antagonist, Compound concentration 10.0 uM
# [10] = molecular target: Endothelin-1 receptor (Homo sapiens) (UniProt P25101); experiment: ETA (h) Eurofins-Cerep binding assay; parameters: ligand concentration 0.03 nM; settings: filed as agonist, Compound concentration 10.0 uM
# [11] = molecular target: GABA-A receptor; alpha-1/beta-2/gamma-2 (Homo sapiens) (UniProt P14867+P47870+P18507); experiment: GABAA1 (h) (alpha1,beta2,gamma2) Eurofins-Cerep binding assay; type: protein-complex assay; parameters: ligand concentration 15 nM; settings: filed as agonist, Compound concentration 10.0 uM
# [12] = molecular target: Motilin receptor (Homo sapiens) (UniProt O43193); experiment: motilin (h Eurofins-Cerep binding assay; parameters: ligand concentration 0.05 nM; settings: filed as agonist, Compound concentration 10.0 uM
# [13] = molecular target: Muscarinic acetylcholine receptor M1 (Homo sapiens) (UniProt P11229); experiment: M1 (h) Eurofins-Cerep binding assay; parameters: ligand concentration 2 nM; settings: filed as antagonist, Compound concentration 10.0 uM
# [14] = molecular target: T1, Muscarinic acetylcholine receptor M4 (Homo sapiens) (UniProt P08173); experiment: M4 (h) Eurofins-Cerep binding assay; parameters: ligand concentration 0.2 nM; settings: filed as antagonist, Compound concentration 10.0 uM
# T1 sequence (whole entry): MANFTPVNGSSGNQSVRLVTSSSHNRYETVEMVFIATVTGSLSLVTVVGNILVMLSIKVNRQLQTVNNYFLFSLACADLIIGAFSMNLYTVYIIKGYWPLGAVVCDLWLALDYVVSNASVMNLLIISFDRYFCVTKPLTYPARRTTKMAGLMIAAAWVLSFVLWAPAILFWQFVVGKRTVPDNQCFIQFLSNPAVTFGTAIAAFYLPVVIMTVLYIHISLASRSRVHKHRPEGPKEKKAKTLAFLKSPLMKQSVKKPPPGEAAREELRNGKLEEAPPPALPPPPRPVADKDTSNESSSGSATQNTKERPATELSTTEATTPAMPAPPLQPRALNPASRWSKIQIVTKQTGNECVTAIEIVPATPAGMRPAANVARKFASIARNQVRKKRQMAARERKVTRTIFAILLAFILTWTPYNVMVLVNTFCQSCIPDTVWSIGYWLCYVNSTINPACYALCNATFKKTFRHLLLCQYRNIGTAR
# [15] = molecular target: Substance-K receptor (Homo sapiens) (UniProt P21452); experiment: NK2 (h) Eurofins-Cerep binding assay; parameters: ligand concentration 0.1 nM; settings: filed as agonist, Compound concentration 10.0 uM
# [16] = molecular target: Kappa-type opioid receptor (Homo sapiens) (UniProt P41145); experiment: kappa (h) (KOP) Eurofins-Cerep binding assay; parameters: ligand concentration 0.5 nM; settings: filed as agonist, Compound concentration 10.0 uM
# [17] = molecular target: Mu-type opioid receptor (Homo sapiens) (UniProt P35372); experiment: mu (MOP) (h) Eurofins-Cerep binding assay; parameters: ligand concentration 0.5 nM; settings: filed as agonist, Compound concentration 10.0 uM
# [18] = molecular target: Peroxisome proliferator-activated receptor gamma (Homo sapiens) (UniProt P37231); experiment: PPARgamma (h) Eurofins-Cerep binding assay; parameters: ligand concentration 5 nM; settings: filed as agonist, Compound concentration 10.0 uM
# [19] = molecular target: Prostaglandin E2 receptor EP2 subtype (Homo sapiens) (UniProt P43116); experiment: EP2 (h) Eurofins-Cerep binding assay; parameters: ligand concentration 3 nM; settings: filed as agonist, Compound concentration 10.0 uM
# [20] = molecular target: 5-hydroxytryptamine receptor 1B (Homo sapiens) (UniProt P28222); experiment: 5-HT1B(h) Eurofins-Cerep binding assay; parameters: ligand concentration 1 nM; settings: filed as antagonist, Compound concentration 10.0 uM
# [21] = molecular target: T2, 5-hydroxytryptamine receptor 3A (Homo sapiens) (UniProt P46098); experiment: 5-HT3 (h) Eurofins-Cerep binding assay; parameters: ligand concentration 0.5 nM; settings: filed as antagonist, Compound concentration 10.0 uM
# T2 sequence (whole entry): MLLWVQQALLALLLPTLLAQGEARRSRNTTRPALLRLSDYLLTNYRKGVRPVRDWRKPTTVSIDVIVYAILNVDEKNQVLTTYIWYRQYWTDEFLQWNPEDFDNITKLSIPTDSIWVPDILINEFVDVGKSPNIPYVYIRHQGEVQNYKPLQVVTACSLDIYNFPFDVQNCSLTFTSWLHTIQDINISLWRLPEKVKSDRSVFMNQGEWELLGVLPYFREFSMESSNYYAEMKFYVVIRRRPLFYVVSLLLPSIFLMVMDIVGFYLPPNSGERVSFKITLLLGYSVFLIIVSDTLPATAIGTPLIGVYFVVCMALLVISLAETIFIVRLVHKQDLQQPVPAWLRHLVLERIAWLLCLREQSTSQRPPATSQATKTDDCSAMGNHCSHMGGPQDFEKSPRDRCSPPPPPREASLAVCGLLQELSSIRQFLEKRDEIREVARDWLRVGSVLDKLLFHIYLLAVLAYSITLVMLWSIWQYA
# [22] = molecular target: 5-hydroxytryptamine receptor 4 (Homo sapiens) (UniProt Q13639); experiment: 5-HT4 e (h) Eurofins-Cerep binding assay; parameters: ligand concentration 0.3 nM; settings: filed as antagonist, Compound concentration 10.0 uM
# [23] = molecular target: Sigma non-opioid intracellular receptor 1 (Homo sapiens, UniProt Q99720); experiment: sigma (non-selective) (h) Eurofins-Cerep binding assay; parameters: ligand concentration 10 nM; settings: filed as agonist, Compound concentration 10.0 uM
# [24] = molecular target: Glucocorticoid receptor (Homo sapiens) (UniProt P04150); experiment: GR (h) Eurofins-Cerep binding assay; parameters: ligand concentration 1.5 nM; settings: filed as agonist, Compound concentration 10.0 uM
# [25] = molecular target: Estrogen receptor (Homo sapiens) (UniProt P03372); experiment: Estrogen ER alpha (h) Eurofins-Cerep binding assay; parameters: ligand concentration 0.5 nM; settings: filed as agonist, Compound concentration 10.0 uM
# [26] = molecular target: Urotensin-2 receptor (Homo sapiens) (UniProt Q9UKP6); experiment: UT (h) Eurofins-Cerep binding assay; parameters: ligand concentration 0.1 nM; settings: filed as agonist, Compound concentration 10.0 uM
# [27] = molecular target: Vasoactive intestinal polypeptide receptor 1 (Homo sapiens) (UniProt P32241); experiment: VPAC1 (VIP1) (h) Eurofins-Cerep binding assay; parameters: ligand concentration 0.04 nM; settings: filed as agonist, Compound concentration 10.0 uM
# [28] = molecular target: L-type Ca2+ channel (dihydropyridine site) (Rattus norvegicus, UniProt P22002+P27732+Q02485); experiment: Ca2+ channel (L, dihydropyridine site) Eurofins-Cerep binding assay; type: protein assay; parameters: incubation time 90 min, incubation temperature RT, ligand concentration 0.1 nM; settings: rat cerebral cortex, probe [3H]nitrendipine (0.1 nM), compound concentration 10 uM, read-out: % Inhibition of Control Specific Binding (Mean n=2)
# [29] = molecular target: Sodium-dependent noradrenaline transporter (Homo sapiens) (UniProt P23975); experiment: norepinephrine transporter (h) Eurofins-Cerep binding assay; parameters: ligand concentration 1 nM; settings: filed as antagonist, Compound concentration 10.0 uM
# [30] = molecular target: Sodium- and chloride-dependent GABA transporter 1 (Rattus norvegicus) (UniProt P23978); experiment: GABA transporter Eurofins-Cerep binding assay; parameters: ligand concentration 10 nM; settings: filed as antagonist, Compound concentration 10.0 uM
# [31] = molecular target: Sodium-dependent serotonin transporter (Homo sapiens) (UniProt P31645); experiment: 5-HT transporter (h) Eurofins-Cerep binding assay; parameters: ligand concentration 2 nM; settings: filed as antagonist, Compound concentration 10.0 uM
# D(1A) dopamine receptor (Homo sapiens), sequence (P21728 whole entry): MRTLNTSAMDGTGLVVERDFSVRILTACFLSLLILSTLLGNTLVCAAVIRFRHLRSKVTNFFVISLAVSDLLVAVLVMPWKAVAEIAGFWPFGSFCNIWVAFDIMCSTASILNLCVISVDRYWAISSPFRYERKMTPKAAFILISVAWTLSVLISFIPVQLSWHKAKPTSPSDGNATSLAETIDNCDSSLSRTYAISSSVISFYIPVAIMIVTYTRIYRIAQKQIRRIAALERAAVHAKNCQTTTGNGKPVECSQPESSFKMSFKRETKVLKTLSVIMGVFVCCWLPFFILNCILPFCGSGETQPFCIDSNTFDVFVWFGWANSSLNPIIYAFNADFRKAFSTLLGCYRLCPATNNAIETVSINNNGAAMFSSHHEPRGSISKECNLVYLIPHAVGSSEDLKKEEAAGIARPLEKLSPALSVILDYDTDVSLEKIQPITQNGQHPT
# Vasoactive intestinal polypeptide receptor 1 (Homo sapiens), sequence (P32241 whole entry): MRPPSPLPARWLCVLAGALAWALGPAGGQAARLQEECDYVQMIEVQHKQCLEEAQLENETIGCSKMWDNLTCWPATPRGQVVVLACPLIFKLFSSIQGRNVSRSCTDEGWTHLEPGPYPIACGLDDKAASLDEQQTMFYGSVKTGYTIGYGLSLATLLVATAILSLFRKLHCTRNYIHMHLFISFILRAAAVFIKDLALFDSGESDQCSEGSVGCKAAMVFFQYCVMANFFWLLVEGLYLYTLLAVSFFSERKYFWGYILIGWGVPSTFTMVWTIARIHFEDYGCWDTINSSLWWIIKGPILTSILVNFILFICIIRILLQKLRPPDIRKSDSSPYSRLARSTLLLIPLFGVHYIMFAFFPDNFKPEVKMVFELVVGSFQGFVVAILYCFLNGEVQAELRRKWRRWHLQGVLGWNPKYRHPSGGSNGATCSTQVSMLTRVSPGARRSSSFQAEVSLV
# Adenosine receptor A3 (Homo sapiens), sequence (P0DMS8 whole entry): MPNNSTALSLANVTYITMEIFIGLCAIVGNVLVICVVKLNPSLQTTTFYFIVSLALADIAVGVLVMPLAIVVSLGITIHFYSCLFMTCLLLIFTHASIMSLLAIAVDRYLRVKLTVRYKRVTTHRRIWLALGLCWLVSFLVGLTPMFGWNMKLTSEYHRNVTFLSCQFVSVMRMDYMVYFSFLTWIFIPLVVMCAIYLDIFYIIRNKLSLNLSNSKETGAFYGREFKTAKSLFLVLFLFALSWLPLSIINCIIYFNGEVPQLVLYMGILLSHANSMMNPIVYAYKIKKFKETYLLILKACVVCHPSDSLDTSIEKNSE
# Acetylcholinesterase (Homo sapiens), sequence (P22303 whole entry): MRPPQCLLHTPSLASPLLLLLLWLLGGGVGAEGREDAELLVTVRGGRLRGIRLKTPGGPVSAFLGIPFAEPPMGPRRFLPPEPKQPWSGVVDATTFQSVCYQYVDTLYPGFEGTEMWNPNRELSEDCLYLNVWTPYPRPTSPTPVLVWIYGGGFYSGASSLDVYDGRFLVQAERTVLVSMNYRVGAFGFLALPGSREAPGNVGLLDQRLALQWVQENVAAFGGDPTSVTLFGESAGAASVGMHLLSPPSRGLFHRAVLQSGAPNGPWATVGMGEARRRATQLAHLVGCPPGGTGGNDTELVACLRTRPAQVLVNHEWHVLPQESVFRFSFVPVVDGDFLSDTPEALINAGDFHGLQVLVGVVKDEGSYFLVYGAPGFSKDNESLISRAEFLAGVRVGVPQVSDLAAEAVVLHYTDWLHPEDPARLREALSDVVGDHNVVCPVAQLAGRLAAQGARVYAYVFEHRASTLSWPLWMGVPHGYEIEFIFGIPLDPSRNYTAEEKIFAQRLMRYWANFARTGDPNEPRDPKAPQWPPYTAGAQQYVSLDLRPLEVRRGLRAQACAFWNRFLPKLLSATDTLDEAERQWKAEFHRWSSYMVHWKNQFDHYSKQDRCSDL
# Prostaglandin G/H synthase 2 (Homo sapiens), sequence (P35354 whole entry): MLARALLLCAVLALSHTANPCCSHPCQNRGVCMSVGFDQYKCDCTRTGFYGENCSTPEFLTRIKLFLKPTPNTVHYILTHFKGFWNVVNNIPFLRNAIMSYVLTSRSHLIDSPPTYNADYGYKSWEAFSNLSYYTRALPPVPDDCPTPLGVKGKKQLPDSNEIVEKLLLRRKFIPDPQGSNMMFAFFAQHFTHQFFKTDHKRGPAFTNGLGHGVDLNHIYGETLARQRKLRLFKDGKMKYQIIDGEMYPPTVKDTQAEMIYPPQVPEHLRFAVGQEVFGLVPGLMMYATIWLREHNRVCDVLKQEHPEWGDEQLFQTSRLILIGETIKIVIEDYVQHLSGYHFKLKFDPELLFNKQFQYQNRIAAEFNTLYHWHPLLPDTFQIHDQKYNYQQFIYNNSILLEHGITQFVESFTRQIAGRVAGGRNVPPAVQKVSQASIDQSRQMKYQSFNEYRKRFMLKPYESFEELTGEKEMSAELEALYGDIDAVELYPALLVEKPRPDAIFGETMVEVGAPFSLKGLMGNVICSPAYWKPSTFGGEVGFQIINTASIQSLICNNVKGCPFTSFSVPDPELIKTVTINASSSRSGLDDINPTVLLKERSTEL
# Type-2 angiotensin II receptor (Homo sapiens), sequence (P50052 whole entry): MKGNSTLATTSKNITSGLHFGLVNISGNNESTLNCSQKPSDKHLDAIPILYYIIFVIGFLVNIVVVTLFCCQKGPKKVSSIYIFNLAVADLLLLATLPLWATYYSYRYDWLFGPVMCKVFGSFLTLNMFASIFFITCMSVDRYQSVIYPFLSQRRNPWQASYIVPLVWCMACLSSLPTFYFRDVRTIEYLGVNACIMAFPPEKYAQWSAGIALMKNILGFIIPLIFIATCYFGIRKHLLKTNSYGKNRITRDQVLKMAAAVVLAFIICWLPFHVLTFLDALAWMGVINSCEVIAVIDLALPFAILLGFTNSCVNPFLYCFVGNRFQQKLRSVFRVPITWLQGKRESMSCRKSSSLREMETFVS
# Peroxisome proliferator-activated receptor gamma (Homo sapiens), sequence (P37231 whole entry): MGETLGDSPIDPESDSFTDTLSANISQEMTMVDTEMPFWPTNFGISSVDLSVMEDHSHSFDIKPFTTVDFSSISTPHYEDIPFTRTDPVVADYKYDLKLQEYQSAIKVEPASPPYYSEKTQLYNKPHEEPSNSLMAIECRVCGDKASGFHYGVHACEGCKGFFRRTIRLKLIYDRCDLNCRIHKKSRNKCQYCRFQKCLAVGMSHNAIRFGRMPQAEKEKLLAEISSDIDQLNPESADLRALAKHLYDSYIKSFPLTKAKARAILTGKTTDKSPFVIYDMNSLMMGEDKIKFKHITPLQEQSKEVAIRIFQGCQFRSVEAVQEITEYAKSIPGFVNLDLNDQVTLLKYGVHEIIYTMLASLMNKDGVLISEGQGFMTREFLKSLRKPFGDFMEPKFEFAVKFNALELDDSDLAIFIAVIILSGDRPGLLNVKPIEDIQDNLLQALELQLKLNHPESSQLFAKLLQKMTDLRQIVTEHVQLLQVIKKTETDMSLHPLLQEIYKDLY
# B2 bradykinin receptor (Homo sapiens), sequence (P30411 whole entry): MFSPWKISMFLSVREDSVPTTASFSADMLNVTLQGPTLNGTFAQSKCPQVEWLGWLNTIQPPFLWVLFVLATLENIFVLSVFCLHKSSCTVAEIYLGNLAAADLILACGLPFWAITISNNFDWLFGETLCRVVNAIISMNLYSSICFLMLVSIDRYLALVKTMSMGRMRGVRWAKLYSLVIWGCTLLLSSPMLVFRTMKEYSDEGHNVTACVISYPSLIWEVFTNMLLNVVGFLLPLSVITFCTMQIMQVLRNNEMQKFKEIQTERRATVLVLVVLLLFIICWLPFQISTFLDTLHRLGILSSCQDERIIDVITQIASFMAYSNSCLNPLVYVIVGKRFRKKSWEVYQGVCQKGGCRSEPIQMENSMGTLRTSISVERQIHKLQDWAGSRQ
# 5-hydroxytryptamine receptor 4 (Homo sapiens), sequence (Q13639 whole entry): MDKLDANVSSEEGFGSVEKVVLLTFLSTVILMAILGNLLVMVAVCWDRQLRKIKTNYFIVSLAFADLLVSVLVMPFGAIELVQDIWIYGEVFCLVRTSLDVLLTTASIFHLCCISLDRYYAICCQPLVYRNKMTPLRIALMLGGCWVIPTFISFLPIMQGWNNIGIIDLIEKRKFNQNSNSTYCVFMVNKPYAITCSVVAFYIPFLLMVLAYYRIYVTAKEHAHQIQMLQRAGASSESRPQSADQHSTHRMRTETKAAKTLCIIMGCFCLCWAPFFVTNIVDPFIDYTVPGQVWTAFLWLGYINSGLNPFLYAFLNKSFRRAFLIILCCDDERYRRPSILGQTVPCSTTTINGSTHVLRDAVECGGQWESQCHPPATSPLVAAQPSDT
# 5-hydroxytryptamine receptor 1B (Homo sapiens), sequence (P28222 whole entry): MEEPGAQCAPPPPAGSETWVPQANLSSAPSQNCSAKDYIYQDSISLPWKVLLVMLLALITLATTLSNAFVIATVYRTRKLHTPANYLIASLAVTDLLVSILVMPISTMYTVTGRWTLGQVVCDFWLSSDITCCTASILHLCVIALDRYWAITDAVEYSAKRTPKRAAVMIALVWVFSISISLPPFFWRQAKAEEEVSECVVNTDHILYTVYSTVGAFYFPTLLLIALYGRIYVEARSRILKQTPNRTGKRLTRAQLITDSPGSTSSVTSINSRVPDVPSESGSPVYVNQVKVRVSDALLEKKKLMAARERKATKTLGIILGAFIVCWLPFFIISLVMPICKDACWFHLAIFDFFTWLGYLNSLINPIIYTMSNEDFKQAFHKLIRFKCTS
# Prostaglandin E2 receptor EP2 subtype (Homo sapiens), sequence (P43116 whole entry): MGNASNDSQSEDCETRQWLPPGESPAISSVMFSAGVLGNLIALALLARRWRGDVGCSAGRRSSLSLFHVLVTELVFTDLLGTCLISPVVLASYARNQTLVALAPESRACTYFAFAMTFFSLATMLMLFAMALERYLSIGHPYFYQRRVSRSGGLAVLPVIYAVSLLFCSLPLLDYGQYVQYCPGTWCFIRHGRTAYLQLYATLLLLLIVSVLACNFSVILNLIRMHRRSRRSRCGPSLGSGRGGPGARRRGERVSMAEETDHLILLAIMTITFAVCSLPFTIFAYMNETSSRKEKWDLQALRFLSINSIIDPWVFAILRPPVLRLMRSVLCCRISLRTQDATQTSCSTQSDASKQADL
Compound,% Inhibition of Control Values (Mean n=2) [1] [%],% Inhibition of Control Values (Mean n=2) [2] [%],% Inhibition of Control Specific Binding (Mean n=2) [3] [%],% Inhibition of Control Specific Binding (Mean n=2) [4] [%],% Inhibition of Control Specific Binding (Mean n=2) [5] [%],% Inhibition of Control Specific Binding (Mean n=2) [6] [%],% Inhibition of Control Specific Binding (Mean n=2) [7] [%],% Inhibition of Control Specific Binding (Mean n=2) [8] [%],% Inhibition of Control Specific Binding (Mean n=2) [9] [%],% Inhibition of Control Specific Binding (Mean n=2) [10] [%],% Inhibition of Control Specific Binding (Mean n=2) [11] [%],% Inhibition of Control Specific Binding (Mean n=2) [12] [%],% Inhibition of Control Specific Binding (Mean n=2) [13] [%],% Inhibition of Control Specific Binding (Mean n=2) [14] [%],% Inhibition of Control Specific Binding (Mean n=2) [15] [%],% Inhibition of Control Specific Binding (Mean n=2) [16] [%],% Inhibition of Control Specific Binding (Mean n=2) [17] [%],% Inhibition of Control Specific Binding (Mean n=2) [18] [%],% Inhibition of Control Specific Binding (Mean n=2) [19] [%],% Inhibition of Control Specific Binding (Mean n=2) [20] [%],other results
O=C(Nc1nc2ccccc2s1)c1cccc2c1CN(c1nc(C(=O)O)c(CCOc3ccc(-n4ncc5cncnc54)cc3)s1)CC2 [A-1107969],65.5,14.5,54,-3.5,1.5,17.3,-20.2,-9.4,3.5,-5.1,-19.5,2.2,-1.6,8.6,5.3,17,6,98.2,60.3,-39.6,"% Inhibition of Control Specific Binding (Mean n=2) [21]: -5.7%; % Inhibition of Control Specific Binding (Mean n=2) [22]: -4%; % Inhibition of Control Specific Binding (Mean n=2) [23]: -47.8%; % Inhibition of Control Specific Binding (Mean n=2) [24]: 55.4%; % Inhibition of Control Specific Binding (Mean n=2) [25]: 8.4%; % Inhibition of Control Specific Binding (Mean n=2) [26]: 62.2%; % Inhibition of Control Specific Binding (Mean n=2) [27]: -8.2%; inhibition at 90 min, 10 µM [28]: -2.2%; % Inhibition of Control Specific Binding (Mean n=2) [29]: -4%; % Inhibition of Control Specific Binding (Mean n=2) [30]: -1.5%; % Inhibition of Control Specific Binding (Mean n=2) [31]: -2.3%"
CN(C)CC#Cc1ccc(OCCCc2sc(N3CCc4cccc(C(=O)Nc5nc6ccccc6s5)c4C3)nc2C(=O)O)c(F)c1 [A-1155463],62.2,7.1,71.6,20.5,1.1,18.1,-7,-6.8,26.2,-2.2,-2.9,-21.6,19.1,13.8,25.6,34.4,36.1,99.1,33.8,-7.1,"% Inhibition of Control Specific Binding (Mean n=2) [21]: 2%; % Inhibition of Control Specific Binding (Mean n=2) [22]: 6.7%; % Inhibition of Control Specific Binding (Mean n=2) [23]: 57.8%; % Inhibition of Control Specific Binding (Mean n=2) [24]: 37.8%; % Inhibition of Control Specific Binding (Mean n=2) [25]: 11.9%; % Inhibition of Control Specific Binding (Mean n=2) [26]: 94.9%; % Inhibition of Control Specific Binding (Mean n=2) [27]: -8.1%; inhibition at 90 min, 10 µM [28]: -21.8%; % Inhibition of Control Specific Binding (Mean n=2) [29]: 20.9%; % Inhibition of Control Specific Binding (Mean n=2) [30]: 17.3%; % Inhibition of Control Specific Binding (Mean n=2) [31]: 8.5%"
